In article PMC10254897, “Development and Validation of a New LC-MS/MS Bioanalytical Method for the Simultaneous Determination of Levodopa, Levodopa Methyl Ester, and Carbidopa in Human Plasma Samples” (Molecules, 2023):

Experiment: Short-term, medium-term and autosampler stability in plasma samples and extracts
Format: physicochemical, human
Conditions: for Stability in plasma samples at −40 °C (time stable): tested 2 weeks, 1 and 2 months
Procedure: Sample stability was measured at two concentration levels (LQC and HQC) in triplicate. Long-term stability was evaluated at −40 °C for 2 weeks, 1 and 2 months; short-term stability was evaluated at room temperature (rt) under light exposure and with light protection and at 4 °C (light protection) for 1, 2, 3, 4, and 7 days. Autosampler stability was also assessed by storing extracts in the autosampler compartment at 10 °C for 1, 2, 3, 4, and 7 days.
The mean concentration values obtained from each measurement were compared to the concentrations measured at T0 before storage. Stability data are expressed as percentual difference from T0.

[1] = plasma samples stored at −40 °C

| Structure (SMILES) | Stability in plasma samples at −40 °C (time stable) [1] | other results |
| --- | --- | --- |
| C[C@@](Cc1ccc(O)c(O)c1)(NN)C(=O)O [Carbidopa, carbidopa] | up to 1 months |  |
| N[C@@H](Cc1ccc(O)c(O)c1)C(=O)O [L-DOPA, Levodopa] | up to 2 months |  |
| COC(=O)C(N)Cc1ccc(O)c(O)c1 (stereo not shown) [LDME, levodopa methyl ester] |  | Stability in plasma samples at −40 °C (in words) [1]: not satisfactory |
| NC(CO)C(=O)NNCc1ccc(O)c(O)c1O (stereo not shown) [benserazide] |  | Stability of the compound (in words) (method development, conditions not stated): severe stability issues |
